Columns and labels:
Assay type in all cases: cell-based, human
[1] = tested on: PC3 cells; experiment: Ribosome profiling and RNA-seq of PC3 cells (translational efficiency, mRNA abundance);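 also: mRNA is RNA-seq average read density per codon over the coding sequence, translational efficiency is ribosome footprint over RNA-seq density, scaled so the median gene equals 1.0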
Method: Given the critical role for mTOR in prostate cancer, PC3 human prostate cancer cells, in which mTOR is constitutively hyperactivated, were used to delineate translationally controlled gene expression networks upon complete or partial mTOR inhibition. Ribosome profiling was optimized to assess quantitatively ribosome occupancy genome-wide in cancer cells.
Cells were subsequently treated with cycloheximide (100 μg ml^−1) and detergent lysis was performed in the dish. The lysate was treated with DNase and clarified, and a sample was taken for RNA-seq analysis. Lysates were subjected to ribosome footprinting by nuclease treatment. Ribosome-protected fragments were purified, and deep sequencing libraries were generated from these fragments, as well as from poly(A) mRNA purified from non-nuclease-treated lysates.
Ribosome footprint and RNA-seq sequencing reads were aligned against a library of transcripts from the UCSC Known Genes database GRCh37/hg19. The first 25 nucleotides of each read were aligned using Bowtie and this initial alignment was then extended to encompass the full fragment-derived portion of the sequencing read while excluding the linker sequence. Read density profiles were then constructed for the canonical transcript of each gene, using only reads with 0 or 1 total mismatches between the read sequence and the reference sequence, comprised of the transcript fragment followed by the linker sequence. Footprint reads were assigned to an A site nucleotide at position +15 to +17 of the alignment, based on the total fragment length; mRNA reads were assigned to the first nucleotide of the alignment. The average read density per codon was then computed for the coding sequence of each transcript, excluding the first 15 and last 5 codons, which can display atypical ribosome accumulation.
Average read density was used as a measure of mRNA abundance (RNA-seq reads) and of protein synthesis (ribosome profiling reads). For most analyses, genes were filtered to require at least 256 reads in the relevant RNA-seq samples. Translational efficiency was computed as the ratio of ribosome footprint read density to RNA-seq read density, scaled to normalize the translational efficiency of the median gene to 1.0 after excluding regulated genes (log2 fold-change ±1.5 after normalizing for the all-gene median). Changes in protein synthesis, mRNA abundance and translational efficiency were similarly computed as the ratio of read densities between different samples, normalized to give the median gene a ratio of 1.0. This normalization corrects for differences in the absolute number of sequencing reads obtained for different libraries.

[2] = tested on: SW620 cells; experiment: Western blot of phosphorylation of protein translation components in SW620 cells; details: PP242 10 μM
Method: SW620 cells (ATCC, passage 12) were seeded at about 75% confluence 24 hrs prior to drug treatment. […] About 6×10^6 cells/10 cm plate and about 1×10^6 cells/well of a 6-well plate were harvested for ribosome profiling and Western blot analysis, respectively, following drug treatment.
Cells were washed with PBS and lysed in 1× cell lysis buffer (Cell Signaling) for 15 min at 4° C. Lysates were sonicated briefly, clarified by centrifugation for 15 min at 14, 000 rpm, and supernatants were then collected. Protein concentration in the soluble fraction was determined by BCA protein assay (Thermo Scientific). A 4-20% Bis-Tris gradient gel (Invitrogen) was used to resolve 20 μg of protein and transferred to nitrocellulose membrane. The resulting membranes were blocked for 1 hr at room temperature with Odyssey blocking solution (LI-COR) and then incubated with primary antibodies at 4° C. overnight. The following day, the blots were washed 3 times, 10 min each in TBST, and incubated with IR-conjugated goat anti-rabbit IgG secondary antibody (IRDye 800 CW at 1:20,000; LI-COR) for 1 hour at room temperature. The blots were then washed, scanned, and specific proteins were detected using the LI-COR Odyssey infrared imager. The following antibodies from Cell Signaling were used at 1:1000 dilution: anti-phospho-eIF4E(Ser209)(#9741), anti-phospho-rpS6(Ser235/236)(#4858), anti-phospho-ERK1/2(Thr202/Tyr204)(#4370), anti-phospho-p70S6K(Thr421/Ser424)(#9204), anti-phospho-p90RSK(Thr359/Ser363)(#9344), anti-phospho-4EBP(Ser65), anti-phospho-pAKT(Ser473), anti-phospho-eIF4E(Ser209), and anti-β-actin (#4970). Actin was used as a loading amount control.

[3] = tested on: 4EBP1, p70S6K1/2 and AKT; experiment: Western blot of downstream mTOR effectors in PC3 cells; details: 2.5 μM PP242, 3 hrs
Method: Cells were washed with PBS and lysed in 1× cell lysis buffer (Cell Signaling) for 15 min at 4° C. Lysates were sonicated briefly, clarified by centrifugation for 15 min at 14, 000 rpm, and supernatants were then collected. Protein concentration in the soluble fraction was determined by BCA protein assay (Thermo Scientific). A 4-20% Bis-Tris gradient gel (Invitrogen) was used to resolve 20 μg of protein and transferred to nitrocellulose membrane. The resulting membranes were blocked for 1 hr at room temperature with Odyssey blocking solution (LI-COR) and then incubated with primary antibodies at 4° C. overnight. The following day, the blots were washed 3 times, 10 min each in TBST, and incubated with IR-conjugated goat anti-rabbit IgG secondary antibody (IRDye 800 CW at 1:20,000; LI-COR) for 1 hour at room temperature. The blots were then washed, scanned, and specific proteins were detected using the LI-COR Odyssey infrared imager. […] Actin was used as a loading amount control.

## CC(C)n1nc(-c2cc3cc(O)ccc3[nH]2)c2c(N)ncnc21 [PP242]
[1]; PP242 2.5 μM, 3-hour treatment
  TrlEff, ACD: −1.02
  TrlEff, C17orf28: −0.20
  TrlEff, CCNA1: 0.66
  TrlEff, DDX51: −0.51
  TrlEff, DGCR2: 0.02
  TrlEff, EEF1A1: −3.53
  TrlEff, GTPBP3: −0.83
  TrlEff, MAPK6: −0.29
  TrlEff, MAPKAPK2: 0.92
  TrlEff, NFATC21P: 0.35
  TrlEff, NR2F1: −0.09
  TrlEff, PRKD3: 0.68
  TrlEff, RBPJ: −0.03
  TrlEff, RPL28: −3.48
  TrlEff, RPL39: −2.53
  TrlEff, RPS20: −2.78
  TrlEff, RPS27: −3.35
  TrlEff, SDCCAG10: 0.23
  TrlEff, UBTD2: 0.27
  TrlEff, UCHL5: 0.40
  TrlEff, VHL: 0.52
  mRNA, ACD: 0.20
  mRNA, ARID5B: 1.93 log^2 fold change
  mRNA, BCL6: 1.59 log^2 fold change
  mRNA, BRIX1: −1.51 log^2 fold change
  mRNA, C17orf28: 0.21
  mRNA, CCNA1: −0.33
  mRNA, CTGF: 1.80 log^2 fold change
  mRNA, CYR61: 1.47 log^2 fold change
  mRNA, DDX51: 0.17
  mRNA, DGCR2: 0.05
  mRNA, EEF1A1: 0.29
  mRNA, FGFBP1: −1.75 log^2 fold change
  mRNA, FOXA1: 1.45 log^2 fold change
  mRNA, GDF15: 3.02 log^2 fold change
  mRNA, GTPBP3: 0.15
  mRNA, HBP1: 1.88 log^2 fold change
  mRNA, KLF6: 1.75 log^2 fold change
  mRNA, MAPK6: 0.10
  mRNA, MAPKAPK2: −0.22
  mRNA, MT2A: 1.47 log^2 fold change
  mRNA, NFATC21P: 0.08
  mRNA, NR2F1: 0.87
  mRNA, PLAU: 2.04 log^2 fold change
  mRNA, PRKD3: −0.46
  mRNA, RBPJ: 0.17
  mRNA, RND3: 1.78 log^2 fold change
  mRNA, RPL28: 0.55
  mRNA, RPL39: −0.42
  mRNA, RPS20: −0.10
  mRNA, RPS27: 0.06
  mRNA, SDCCAG10: −0.37
  mRNA, SOX4: 1.51 log^2 fold change
  mRNA, UBTD2: 0.25
  mRNA, UCHL5: −0.51
  mRNA, VHL: 0.43
[1]; gene ACTG1
  TrlEff: −1.40
  mRNA: 0.28
[1]; gene AGRN
  mRNA: 0.50
[1]; gene ALKBH7
  mRNA: 0.51
[1]; gene AP2A1
  mRNA: 0.42
[1]; gene ARD1A
  mRNA: 0.03
[1]; gene ATP5G2
  mRNA: 0.17
[1]; gene C21orf66
  mRNA: −0.31
[1]; gene CCNI
  mRNA: 0.24
[1]; gene CD44
  mRNA: 0.43
[1]; gene CIRBP
  mRNA: 0.54
[1]; gene CLPTM1
  mRNA: 0.41
[1]; gene COL6A2
  mRNA: 0.57
[1]; gene CRTAP
  TrlEff: −2.50
  mRNA: 0.33
[1]; gene ECSIT
  mRNA: 0.26
[1]; gene EEF1A2
  mRNA: 0.40
[1]; gene EEF1B2
  TrlEff: −1.70
[1]; gene EEF1D
  mRNA: 0.35
[1]; gene EEF1G
  mRNA: 0.15
[1]; gene EEF2
  TrlEff: −3.60
[1]; gene EIF3H
  mRNA: 0.09
[1]; gene EIF3L
  mRNA: 0.21
[1]; gene EIF4B
  mRNA: 0.61
[1]; gene EVPL
  TrlEff: −0.79
  mRNA: 0.38
[1]; gene FAM83H
  mRNA: 0.33
[1]; gene FAM128B
  mRNA: 0.43
[1]; gene FASN
  mRNA: 0.30
[1]; gene GAPDH
  TrlEff: −1.90
[1]; gene GLTSCR2
  mRNA: 0.70
[1]; gene GNB2L1
  mRNA: 0.27
[1]; gene HNRNPA1
  mRNA: 0.27
[1]; gene HSPA8
  mRNA: −0.40
[1]; gene IMPDH2
  mRNA: 0.21
[1]; gene LAMA5
  TrlEff: −0.94
  mRNA: 0.40
[1]; gene LMF2
  mRNA: 0.62
[1]; gene MTA1
  mRNA: 0.21
[1]; gene NCLN
  TrlEff: −0.76
  mRNA: 0.29
[1]; gene PABPC1
  mRNA: 0.16
[1]; gene PABPC4
  mRNA: 0.40
[1]; gene PACS1
  mRNA: 0.45
[1]; gene PFDN5
  mRNA: 0.04
[1]; gene PGLS
  mRNA: 0.21
[1]; gene PGM1
  mRNA: 0.23
[1]; gene PNKP
  TrlEff: −0.79
  mRNA: 0.33
[1]; gene PTGES2
  TrlEff: −0.65
  mRNA: 0.17
[1]; gene RABGGTB
  mRNA: 0.20
[1]; gene RPL3
  mRNA: 0.22
[1]; gene RPL4
  TrlEff: −1.50
  mRNA: 0.10
[1]; gene RPL7
  mRNA: 0.01
[1]; gene RPL7A
  TrlEff: −2.30
  mRNA: 0.15
[1]; gene RPL9
  mRNA: −0.08
[1]; gene RPL10
  mRNA: 0.25
[1]; gene RPL10A
  mRNA: 0.14
[1]; gene RPL11
  mRNA: 0.14
[1]; gene RPL12
  mRNA: 0.12
[1]; gene RPL13
  mRNA: 0.26
[1]; gene RPL13A
  TrlEff: −3.10
  mRNA: 0.30
[1]; gene RPL15
  TrlEff: −1.20
  mRNA: 0.19
[1]; gene RPL17
  TrlEff: −1.80
[1]; gene RPL18A
  mRNA: 0.23
[1]; gene RPL19
  mRNA: 0.11
[1]; gene RPL21
  mRNA: −0.04
[1]; gene RPL22
  mRNA: 0.00
[1]; gene RPL22L1
  TrlEff: −1.90
[1]; gene RPL24
  mRNA: 0.00
[1]; gene RPL26
  TrlEff: −2.00
  mRNA: 0.02
[1]; gene RPL27
  mRNA: −0.13
[1]; gene RPL27A
  mRNA: 0.07
[1]; gene RPL28
  mRNA: 0.22
[1]; gene RPL31
  TrlEff: −2.10
  mRNA: 0.05
[1]; gene RPL32
  mRNA: 0.11
[1]; gene RPL34
  mRNA: 0.04
[1]; gene RPL36A
  mRNA: −0.01
[1]; gene RPL37A
  mRNA: 0.01
[1]; gene RPL39
  mRNA: −0.15
[1]; gene RPL41
  mRNA: −0.01
[1]; gene RPLP0
  mRNA: 0.12
[1]; gene RPLP1
  mRNA: 0.12
[1]; gene RPLP2
  TrlEff: −2.10
  mRNA: 0.14
[1]; gene RPS2
  mRNA: 0.20
[1]; gene RPS3
  mRNA: 0.24
[1]; gene RPS3A
  mRNA: −0.06
[1]; gene RPS4X
  mRNA: 0.12
[1]; gene RPS5
  mRNA: 0.23
[1]; gene RPS6
  mRNA: −0.02
[1]; gene RPS7
  TrlEff: -1151
  mRNA: −0.04
[1]; gene RPS9
  mRNA: 0.34
[1]; gene RPS12
  TrlEff: −3.00
  mRNA: 0.04
[1]; gene RPS13
  mRNA: −0.08
[1]; gene RPS14
  TrlEff: −1.50
  mRNA: 0.16
[1]; gene RPS15
  mRNA: 0.21
[1]; gene RPS15A
  mRNA: 0.07
[1]; gene RPS19
  mRNA: 0.23
[1]; gene RPS20
  mRNA: −0.01
[1]; gene RPS21
  mRNA: 0.09
[1]; gene RPS25
  mRNA: −0.04
[1]; gene RPS27
  mRNA: 0.07
[1]; gene RPS27A
  mRNA: −0.04
[1]; gene RPS28
  mRNA: 0.28
[1]; gene RPS29
  mRNA: 0.11
[1]; gene SLC19A1
  mRNA: 0.10
[1]; gene SLC25A5
  TrlEff: −1.80
[1]; gene TKT
  mRNA: 0.33
[1]; gene TSC2
  mRNA: 0.21
[1]; gene UBA52
  mRNA: 0.18
[1]; gene VIM
  mRNA: 0.67
[1]; gene YB1
  TrlEff: −2.30
  mRNA: 0.24
[2]
  phosphorylation of 4EBP: some phosphorylation of 4EBP was observed
[3]
  phosphorylation of S6K, S6 and 4EBP1: substantially inhibited

From patent US20190136321A1, “USE OF TRANSLATIONAL PROFILING TO IDENTIFY TARGET MOLECULES FOR THERAPEUTIC TREATMENT” (The Regents of The University of California, priority 2013, published 2019)
